Source: publication PMC12865225 (Clinical and Translational Science, 2026)
Marks after values point to notes of the source that are not given here.

Biological target: T1, OAT3 (Homo sapiens, UniProt Q8TCC7)
T1 sequence (Q8TCC7 1-542): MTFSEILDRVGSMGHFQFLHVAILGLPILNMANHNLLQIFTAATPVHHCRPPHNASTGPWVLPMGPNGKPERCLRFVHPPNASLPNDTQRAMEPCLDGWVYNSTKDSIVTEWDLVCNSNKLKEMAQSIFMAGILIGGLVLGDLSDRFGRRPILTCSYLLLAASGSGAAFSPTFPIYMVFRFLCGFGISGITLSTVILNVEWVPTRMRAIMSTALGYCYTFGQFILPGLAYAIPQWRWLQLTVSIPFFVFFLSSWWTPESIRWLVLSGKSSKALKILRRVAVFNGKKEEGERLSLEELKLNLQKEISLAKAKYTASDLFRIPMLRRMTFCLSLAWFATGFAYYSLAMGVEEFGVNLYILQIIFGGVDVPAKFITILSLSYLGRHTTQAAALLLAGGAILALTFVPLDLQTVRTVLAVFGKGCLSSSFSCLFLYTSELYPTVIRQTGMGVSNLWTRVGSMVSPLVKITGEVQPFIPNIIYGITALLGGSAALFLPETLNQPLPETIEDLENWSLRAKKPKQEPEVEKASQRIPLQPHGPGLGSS
Assay: OAT3 inhibition, fluorescein uptake into HEK293 cells
Type: cell-based
Parameters: expressed in transfected cells; host or cells: HEK293 (recombinant baculovirus-mediated transduction)
Conditions: R = I max,u/IC50, FDA cut-off ≥ 0.1
Experimental: The human transporters OATP1B1, OATP1B3, OATP2B1, and OAT1‐OAT4 and a negative control protein (enhanced yellow fluorescent protein, eYFP) were transiently expressed in human embryonic kidney 293 (HEK293) cells by recombinant baculovirus‐mediated transduction. Baculoviruses carrying human genes for the transporters were prepared as reported previously. HEK293 cells were cultured in DMEM containing 10% fetal bovine serum at 37°C and 5% CO2 and passaged two to three times per week. For the transport studies, 0.05 × 10^6 cells for 48‐well plates (OATPs) or 0.06 × 10^6 cells for 24‐well plates (OATs) were seeded onto cell‐culture treated well plates coated with poly‐D‐lysine. […]
In the OATP inhibition assays, inhibitors in warm TP‐buffer were directly applied to cells after media removal, followed by a 30‐min preincubation step in the presence of inhibitors. […] OAT1 and OAT3 cells were lysed with 200 μL of 1 M sodium hydroxide for 10 min, and 150 μL of these samples were transferred to a black well plate for fluorescein quantification. […]
For the inhibition data analysis, the average of measured concentrations in the control cells was subtracted from the average of measured concentrations in transporter‐expressing cells for each inhibitor concentration and then normalized to the vehicle sample that represents 100% transport activity. […]

Row | Calculated R-value OAT3 | Structure (SMILES)
1 | 0.07 ^c | Cc1onc(-c2c(Cl)cccc2Cl)c1C(=O)N[C@@H]1C(=O)N2[C@@H]1SC(C)(C)[C@@H]2C(=O)O [Dicloxacillin]
2 | 0.1 ^c | Cc1onc(-c2c(F)cccc2Cl)c1C(=O)N[C@@H]1C(=O)N2[C@@H]1SC(C)(C)[C@@H]2C(=O)O [Flucloxacillin]
